Results on five molecules are retold here after patent US20020045780A1, “Biologically active spermidine analogues, pharmaceutical compositions and methods of treatment” (priority 1997, published 2002).

In general, Ki refers to a measure of affinity in units of concentration, obtained from inhibition or displacement. What is called IC50 is the concentration that gives 50% inhibition. As usually defined, the LD50 is the dose expected to kill half of the subjects tested.

Data set [1] has as its system polyamine transport apparatus. Nature of the data set: Competitive uptake determination: inhibition of [3H]spermidine transport into L1210 cells. In kind it is cell-based, murine. The settings on record: analogue inhibition of spermidine transport. An outline of the steps: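 Analogues competed with [3H]spermidine for uptake into L1210 cells. Values are Ki, derived from Lineweaver–Burk analysis as competitive inhibition with respect to spermidine.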

For data set [2], the system named is L1210 cells. Nature of the data set: Polyamine pool analysis in L1210 cells. In kind it is cell-based, murine. Particulars: for activity at 15 µM / activity at 75 µM / activity at 100 µM / activity at 500 µM: Mus musculus, % of untreated control; for activity at 15 µM / activity at 75 µM: L1210; for activity at 15 µM / activity at 75 µM / Analogue: 48 hours; for Analogue: intracellular amount; for activity at 100 µM / activity at 500 µM: L1210, 48 h. An outline of the steps: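 Cells were exposed to each analogue for 48 h at two concentrations. Washed pellets were extracted with 0.6 N HClO4 (1 ml/10^7 cells), and polyamines were quantified by HPLC of dansyl derivatives.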

Data set [3] deals with L1210 cells. Nature of the data set: L1210 growth inhibition, IC50 determination. The settings on record: Mus musculus. In kind it is cell-based, murine. Here is the method: Murine L1210 leukemia cells (ATCC CCL 219) were maintained in logarithmic growth in RPMI-1640 medium containing 10% fetal calf serum or a semi-synthetic equivalent, NuSerum, 2% HEPES-MOPS buffer and 1 mM aminoguanidine.

Data set [4] concerns ornithine decarboxylase (ODC). Nature of the data set: ODC activity in treated L1210 cells. In kind it is cell-based, murine. Particulars: L1210, 1 μM at 4 hours. The essentials:
(§1)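 L1210 cells treated with triamines; ODC activity measured at 4 h and AdoMetDC at 6 h as ^14CO2 released from [^14C]-carboxyl-labeled L-ornithine (ODC) or S-adenosyl-L-methionine (AdoMetDC). Untreated cells served as controls and DEHSPM-treated cells as positive controls.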

Data set [5] concerns L1210 cells. Nature of the data set: Metabolic transformation of polyamine analogues by L1210 cells. In kind it is in vitro ADME, murine. The settings on record: for Parent drug as % of total drug in the cell / Parent drug in L1210 cells / N-Monodealkylation (result in words): 48 hours; for N-Monodealkylation (result in words): Trihydrochloride; for N-dealkylation (result in words): L1210 cells, data not shown, concentration not given. Here is the method: The cells were washed twice with cold RPMI-1640, and the pellet was treated with 0.6 N HClO4 (1 ml/10^7 cells). Polyamine contents of the perchloric acid extracts were quantitated by HPLC of the DANSYL derivatives [Bergeron et al, J. Med. Chem., Vol. 37, supra].

Data set [6] relates to S-adenosylmethionine decarboxylase (AdoMetDC). As to the kind of experiment: AdoMetDC activity in treated L1210 cells. Format: cell-based, murine. Particulars: L1210, 1 μM at 6 hours. The essentials:
as §1

Data set [7] relates to spermidine/spermine acetyltransferase (SSAT). Nature of the data set: SSAT activity in treated L1210 cells. Format: cell-based, murine. Particulars: L1210, 10 μM at 48 hours (triamine analogues). An excerpt:
Spermidine/spermine N^1-acetyltransferase activity was based on quantitation of [^14C]-N^1-acetylspermidine formed by acetylation of SPD with [^14C] acetyl coenzyme A according to the method of Libby et al [Biochem. Pharmacol., Vol. 38, supra]. Cells treated with DENSPM were positive controls.

The nature of data set [8]: Acute toxicity in mice (single i.p. dose). In kind it is in vivo. The settings on record: female, CD-1, mouse, in vivo, ip, mice, single dose i.p., scored two hours after dose, read-out: Acute LD50. The method, then: In the current study, the acute toxicity of six analogues and the chronic toxicity of two triamines were measured (Table 7). The value of all polyamine LD50s are shown in both mg/kg and mmol/kg for comparison. […] The animals were scored two hours after administration of the drug. It is clear that the acute LD50s for triamine analogues are approximately twice the acute LD50s for the corresponding tetraamine analogues.
(§2) Acute and chronic toxicities were assessed in 10-12 week old CD-1 female mice from Harlan Sprague-Dawley. For acute toxicities, the polyamine analogues were administered in a single i.p. injection to groups of five or six animals at each dose. The animals were scored two hours after administration of the dose. All survivors were further observed for 10 days to assess late onset of toxicity from the single acute dose. In the chronic toxicity regimen, mice were administered polyamine analogue in three i.p. doses per day (t.i.d.) for six days, for a total of eighteen doses per animal. Appetite, weight and overall appearance were monitored daily. […] At least three test groups of 5-6 animals each, representing three different dose levels, were evaluated for each analogue tested. These dose levels were chosen so that at least two groups presented with lethalities, one with a high fraction of lethalities (>0.50, but <1.00).

The test system of data set [9] is mice. Format: in vivo. The method, then: In the chronic toxicity regimen, mice were administered the polyamine analogue in three doses per day (t.i.d.) for six days for a total of eighteen injections per animal and observed for 10 days after the final dose for lethalities. […] A similar difference is also observed in the chronic toxicity of DE(3,4).
as §2

Data set [10] concerns L1210 cells. Particulars: cited from earlier work.
Data set [11] concerns S-adenosylmethionine decarboxylase (AdoMetDC). Particulars: L1210, 1 μM at 6 hours; cited from earlier work.
In data set [12] the test system is L1210 cells. The settings on record: 48 hours, cited from earlier work; for Analogue, corresponding tetraamine (in parentheses): intracellular amount.
Data set [13] addresses polyamine transport apparatus. Particulars: inhibition of spermidine transport, L1210; read-out: Ki, corresponding tetraamine (in parentheses); cited from earlier work.
For data set [14], the system named is spermidine/spermine acetyltransferase (SSAT). The settings on record: L1210, 2 μM at 48 hours (tetraamine analogues); cited from earlier work.
Where [15] appears, read: L1210, 48 h, L1210, 48 hour exposure, read-out: IC50 48 hour.
Setting [16] is: L1210, 96 h, L1210, 96 hour exposure, read-out: IC50 96 hour.
Setting [17] is: L1210, 48 hour exposure, read-out: IC50 48 hour, corresponding tetraamine (in parentheses).
Setting [18] is: L1210, 96 hour exposure, read-out: IC50 96 hour, corresponding tetraamine (in parentheses).

Where a name gives a salt, the structure may show the parent alone. Read-outs that look alike come from different tables or passages of the source.

Take `CCNCCCCCNCCCCCNCC` [DE(5,5), 3,9,15-Triazaheptadecane Trihydrochloride]: the inhibition constant (Ki) in data set [1] came to 174 µM. The activity at 15 µM stood at 0% in data set [2] (15 μM, read-out: Put); 55% in data set [2] (15 μM, read-out: Spd); 97% in data set [2] (15 μM, read-out: Spm). Moreover, the activity at 75 µM worked out at 0% in data set [2] (75 μM, read-out: Put); 23% in data set [2] (75 μM, read-out: Spd); 73% in data set [2] (75 μM, read-out: Spm). In addition, the Analogue in [2] (15 μM) stood at 1.09 nmol/10^6 cells; in [2] (75 μM) it was 1.59 nmol/10^6 cells. In addition, the concentration for half-maximal inhibition (IC50) lay within 10 to 12 µM in data set [3] (setting [15]) and 0.65 to 0.7 µM in data set [3] (setting [16]). Also, the “ODC activity, percent of untreated control” value in [4] is reported as 100% of untreated control. Besides, the “Parent drug as % of total drug in the cell” value in data set [5] (75 μM analogue) was found to be 100%. The “Parent drug in L1210 cells” value in [5] (75 μM analogue) was 1585 pmols/10^6. In addition, the “N-Monodealkylation (result in words)” value is recorded as “do not show significant N-deethylation” in data set [5] (75 μM analogue) and “no N-deethylation” in [5] (75 μM analogue, listed as DE-[6,6]). Also, the “AdoMetDC activity, percent of untreated control” value in data set [6] was 109% of untreated control. For the same molecule, in data set [7], the “SSAT activity, percent of untreated control” value is 90% of untreated control. Also, the LD50 at 2 h in data set [8] (hydrochloride salts) is 500 mg/kg; in data set [8], 1420 µmol/kg.
As for `CCNCCCCNCCCNCC` [DESPD, N^1,N^8-Diethylspermidine Trihydrochloride], in data set [1], affinity was put at a Ki of 19.3 µM. Also, the activity at 100 µM in [2] (100 μM, read-out: Put) was 0%; in [2] (100 μM, read-out: Spd), 5%; in data set [2] (100 μM, read-out: Spm), 74%. Also, the activity at 500 µM in [2] (500 μM, read-out: Put) was determined as 0%; in data set [2] (500 μM, read-out: Spd) it was 0%; in data set [2] (500 μM, read-out: Spm) it was 55%. Further, the Analogue is on record as 4.61 nmol/10^6 cells in data set [2] (100 μM) and 4.20 nmol/10^6 cells in [2] (500 μM). Further, the figures for the IC50 in data set [3] (setting [15]) and in data set [3] (setting [16]) were about 100 µM and 0.6 to 0.8 µM, respectively. The “ODC activity, percent of untreated control” value in [4] is on record as 30% of untreated control. For the same molecule, the “Parent drug as % of total drug in the cell” value in [5] (100 μM analogue) is reported as 96.3%. Also, in [5] (100 μM analogue), the “Parent drug in L1210 cells” value amounted to 4041 pmols/10^6. Further, the “Animals died on day 6” value in data set [9] (female, CD-1, mouse, in vivo, 15 mg/kg, 3 days) is listed as 4/5. Further, the “Animals died on day 7” value in data set [9] (female, CD-1, mouse, in vivo, 15 mg/kg, 7 day) is given as 5/5. Moreover, the “Chronic LD50 (triamines)” value turned out to be 426 mg/kg-day in data set [9] (mice, i.p. t.i.d. × 6 days, hydrochloride salts) and 1.37 mmol/kg/day in data set [9] (mouse, in vivo, ip). Further, in [9] (ratio of chronic LD50 values, Table 7), the “Chronic toxicity in mice relative to the related tetraamine” value was “about five times less toxic than DE(3,4,3)”. Also, the “AdoMetDC activity, percent of untreated control” value in data set [6] is 68% of untreated control. The “SSAT activity, percent of untreated control” value in [7] is listed as 1380% of untreated control. Moreover, the LD50 at 2 h in [8] (hydrochloride salts) is over 650 mg/kg; in [8] it was over 3220 µmol/kg.
Turning to `CNCCCNCCCNCCCNC` [DMNSPM], the IC50 in [10] (setting [17]) was over 100 µM. In addition, the half-maximal inhibitory concentration (IC50) in data set [10] (setting [18]) is 2.5 µM. In data set [5], the “N-dealkylation (result in words)” value is “no evidence of N-dealkylation”. For the same molecule, in data set [11], the “AdoMetDC activity, corresponding tetraamine (in parentheses)” value (from here on “AdoMetDC activity … (in parentheses)”) is 49% of untreated control. Further, in data set [12] (% of untreated control, 500 μM), the “Put, corresponding tetraamine (in parentheses)” value was “(0) %”; the “Spd, corresponding tetraamine (in parentheses)” value is “(3) %”; the “Spm, corresponding tetraamine (in parentheses)” value was “(27) %”. Moreover, the “Analogue, corresponding tetraamine (in parentheses)” value (“Analogue, corresponding tetraamine” for short) in data set [12] (100 μM) is listed as “(2.14) nmol/10^6 cells”. Also, the “Analogue, corresponding tetraamine” value in [12] (500 μM) is “(1.84) nmol/10^6 cells”. Besides, the Ki in data set [13] was 5.6 µM. The “SSAT activity, corresponding tetraamine (in parentheses)” value (“SSAT activity, corresponding tetraamine” for short) in [14] is recorded as 200% of untreated control.
In the case of `CCNCCCNCCCNCCCN` [MENSPM], the IC50 is over 100 µM in data set [10] (setting [17]) and 2.5 µM in [10] (setting [18]). Besides, the “AdoMetDC activity … (in parentheses)” value in data set [11] is given as 33% of untreated control. Also, in data set [13], the Ki is 7.7 µM. Also, the “SSAT activity, corresponding tetraamine” value in data set [14] is on record as 410% of untreated control.
As to `CNCCCNCCCCNCCCNC` [DMSPM], the figures for the IC50 in data set [10] (setting [17]) and in data set [10] (setting [18]) were over 100 µM and 0.75 µM, respectively. The “N-dealkylation (result in words)” value in [5] is “no evidence of N-dealkylation”. Also, in [11], the “AdoMetDC activity … (in parentheses)” value is reported as 40% of untreated control. Moreover, the “Analogue, corresponding tetraamine” value in data set [12] (100 μM) is “(1.26) nmol/10^6 cells”; in [12] (500 μM), “(1.24) nmol/10^6 cells”. In addition, in data set [13], the Ki is 1.1 µM. In addition, in [14], the “SSAT activity, corresponding tetraamine” value is reported as 300% of untreated control.
